One series deals with HL-60. In words: Cytotoxicity against human HL60 cells after 48 hrs by MTT assay. It counts as functional, cell-based. The note with it: HL-60, 48 h. A general note: Formazan colour is commonly taken as a measure of viable cells.
Another series deals with HCT-8. In words: Cytotoxicity against human HCT8 cells after 48 hrs by MTT assay. The class given is functional, cell-based. The note with it: HCT-8, 48 h.
The test system of another series is A-375. Put plainly: Cytotoxicity against human A375 cells after 48 hrs by MTT assay. It counts as functional, cell-based. The note with it: A-375, 48 h.
For the next series, the system named is MCF7. In words: Cytotoxicity against human MCF7 cells after 48 hrs by MTT assay. The settings on record: MCF7, 48 h. It counts as functional, cell-based.
In a further series the test system is P388. In words: Cytotoxicity against mouse P388 cells after 48 hrs by MTT assay. It counts as functional, cell-based. The note with it: P388, 48 h.
A further series relates to HeLa. Put plainly: Cytotoxicity against human HeLa cells after 48 hrs by MTT assay. It counts as functional, cell-based.
The test system of another series is A549. Put plainly: Cytotoxicity against human A549 cells after 72 hrs by SRB assay. The settings on record: A549, 72 h. It counts as functional, cell-based.
A further series addresses Albumin (Bos taurus, UniProt P02769). In words: Binding affinity to bovine serum albumin at 10 uM after 15 mins by spectrophotometric titration. It counts as ADME. The settings on record: cattle, isolated protein, 0.25 h.
Series [1] concerns DNA. In words: Binding affinity to calf thymus DNA by fluorescence titration. The class given is nucleic-acid assay. The settings on record: Bos taurus.
The test system of series [2] is DNA. Put plainly: Binding affinity to calf thymys DNA assessed as increase in viscosity. It counts as nucleic-acid assay. The note with it: Bos taurus.

Some results are limits rather than exact numbers.

Albumin, sequence (P02769 whole entry): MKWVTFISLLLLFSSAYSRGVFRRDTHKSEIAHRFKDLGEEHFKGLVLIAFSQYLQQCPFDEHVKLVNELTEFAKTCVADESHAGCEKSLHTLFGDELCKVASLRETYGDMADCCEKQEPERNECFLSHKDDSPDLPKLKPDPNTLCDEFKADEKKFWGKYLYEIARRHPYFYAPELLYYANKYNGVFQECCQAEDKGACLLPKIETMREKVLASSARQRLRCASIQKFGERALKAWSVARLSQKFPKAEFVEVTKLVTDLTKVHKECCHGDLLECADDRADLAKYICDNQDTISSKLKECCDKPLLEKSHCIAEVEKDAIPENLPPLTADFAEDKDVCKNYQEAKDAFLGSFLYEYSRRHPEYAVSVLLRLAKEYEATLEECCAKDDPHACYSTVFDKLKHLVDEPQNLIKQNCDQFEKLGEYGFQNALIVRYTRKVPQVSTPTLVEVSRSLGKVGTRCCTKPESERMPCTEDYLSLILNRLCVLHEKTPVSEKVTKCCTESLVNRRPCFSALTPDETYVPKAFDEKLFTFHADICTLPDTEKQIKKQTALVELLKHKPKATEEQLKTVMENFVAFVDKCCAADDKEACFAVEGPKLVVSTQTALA

As for `CC(C)C[C@@H](C(=O)Nc1ccc(S(=O)(=O)c2ccc(N)cc2)cc1)N1C(=O)c2cccc3c(NCCSc4ccccc4)ccc(c23)C1=O`, the 50% inhibitory concentration (IC50) was over 50 µM in the series on HL-60; over 50 µM in the series on HCT-8; over 50 µM in the series with A-375; 24.6 µM with MCF7; over 50 µM with P388; over 50 µM in the series with HeLa. Moreover, the IC50 in the series with A549 is over 50 µM. Moreover, the result at Albumin was Active.

On to `COc1cc(-c2ccc(NC(=O)[C@H](CC(C)C)N3C(=O)c4cccc5c(NCCN(C)C)ccc(c45)C3=O)c(OC)c2)ccc1N`, for which the half-inhibitory concentration (IC50) in the series with HL-60 was 22.8 µM; with HCT-8, over 50 µM; in the series on A-375, 6.51 µM; in the series with MCF7, 15 µM; in the series on P388, 7.67 µM; in the series on HeLa it was 6.74 µM. For the same compound, in the series with A549, half-maximal inhibition (IC50) was put at 25.1 µM.

As to `CC(C)C[C@@H](C(=O)Nc1ccc(S(N)(=O)=O)cc1)N1C(=O)c2cccc3c(NCCSc4ccccc4)ccc(c23)C1=O`, the IC50 in the series with HL-60 is over 50 µM; in the series on HCT-8 it was over 50 µM; in the series on A-375, over 50 µM; with MCF7, 12.6 µM; in the series with P388 it was over 50 µM; in the series with HeLa it was over 50 µM. This compound also showed a half-inhibitory concentration (IC50) in the series with A549 of over 50 µM. On Albumin, the outcome was Active.

As for `CC(C)C[C@@H](C(=O)Nc1ccc(S(N)(=O)=O)cc1)N1C(=O)c2cccc3c(NCCN(C)C)ccc(c23)C1=O`, the IC50 was 17.8 µM in the series on HL-60; over 50 µM in the series with HCT-8; 6.6 µM with A-375; 8.65 µM with MCF7; 7.23 µM with P388; 8.09 µM in the series with HeLa. The concentration for half-maximal inhibition (IC50) in the series with A549 is over 50 µM. Besides, the Ka in the series with DNA [1] was 4.92 ×10⁴ /M. Also, the Activity entry with DNA [2] is “Dose-dependent effect”.

Take `COc1cc(-c2ccc(NC(=O)[C@H](CC(C)C)N3C(=O)c4cccc5c(NCCSc6ccccc6)ccc(c45)C3=O)c(OC)c2)ccc1N`: the IC50 in the series with HL-60 is over 50 µM; in the series with HCT-8 it was over 50 µM; in the series on A-375, over 50 µM; in the series on MCF7 it was 9.45 µM; in the series with P388, over 50 µM; in the series with HeLa, over 50 µM. The 50% inhibitory concentration (IC50) in the series on A549 is over 50 µM. For the same compound, the outcome on Albumin was Active.

For the compound `CC(C)C[C@@H](C(=O)Nc1ccc(S(=O)(=O)c2ccc(N)cc2)cc1)N1C(=O)c2cccc3c(NCCN(C)C)ccc(c23)C1=O`, the 50% inhibitory concentration (IC50) in the series with HL-60 is over 50 µM; with HCT-8, over 50 µM; with A-375, over 50 µM; in the series on MCF7, 8.64 µM; in the series on P388 it was over 50 µM; with HeLa it was over 50 µM. Also, the IC50 in the series on A549 came to 17.2 µM.

The term IC50 denotes the midpoint of a concentration-inhibition curve.

Values taken from ChEMBL document CHEMBL1140885, “Novel naphthalimide-amino acid conjugates with flexible leucine moiety as side chain: design, synthesis and potential antitumor activity” (Bioorg Med Chem, 2009).
